Results taken from patent publication US9682995B2, “Amino-substituted isothiazoles” (BAYER PHARMA AKTIENGESELLSCHAFT, priority 2013, dated 2017).
pIC50: −log10 of the molar value.

What was measured:
[1] = test system: spindle assembly checkpoint; assay: SAC-Formation - Nocodazole-Induced Assay; format: cell-based; details: Homo sapiens; HeLa cells, nocodazole 0.1 μg/ml, 24 h, phosphorylated histone H3 on serine 10
Summary of the method: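 HeLa cells were given nocodazole at 0.1 μg/ml final together with compounds (0.005–20 μM, 0.5% DMSO) for 24 h at 37° C. Mitotic cells were counted by phospho-histone H3 Ser10 immunostaining, with cell number from HOECHST 33342, by high-content imaging. The loss of mitotic cells was fitted with a four-parameter Hill equation.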

human kinase Mps-1 = human kinase Mps-1 (Homo sapiens (Human), UniProt P33981); assay: Mps-1 kinase assay (TR-FRET); format: biochemical; details: 10 μM ATP; read-out: Mps1 avg (IC50 [mol/l])
Sequence of human kinase Mps-1 (P33981 whole entry): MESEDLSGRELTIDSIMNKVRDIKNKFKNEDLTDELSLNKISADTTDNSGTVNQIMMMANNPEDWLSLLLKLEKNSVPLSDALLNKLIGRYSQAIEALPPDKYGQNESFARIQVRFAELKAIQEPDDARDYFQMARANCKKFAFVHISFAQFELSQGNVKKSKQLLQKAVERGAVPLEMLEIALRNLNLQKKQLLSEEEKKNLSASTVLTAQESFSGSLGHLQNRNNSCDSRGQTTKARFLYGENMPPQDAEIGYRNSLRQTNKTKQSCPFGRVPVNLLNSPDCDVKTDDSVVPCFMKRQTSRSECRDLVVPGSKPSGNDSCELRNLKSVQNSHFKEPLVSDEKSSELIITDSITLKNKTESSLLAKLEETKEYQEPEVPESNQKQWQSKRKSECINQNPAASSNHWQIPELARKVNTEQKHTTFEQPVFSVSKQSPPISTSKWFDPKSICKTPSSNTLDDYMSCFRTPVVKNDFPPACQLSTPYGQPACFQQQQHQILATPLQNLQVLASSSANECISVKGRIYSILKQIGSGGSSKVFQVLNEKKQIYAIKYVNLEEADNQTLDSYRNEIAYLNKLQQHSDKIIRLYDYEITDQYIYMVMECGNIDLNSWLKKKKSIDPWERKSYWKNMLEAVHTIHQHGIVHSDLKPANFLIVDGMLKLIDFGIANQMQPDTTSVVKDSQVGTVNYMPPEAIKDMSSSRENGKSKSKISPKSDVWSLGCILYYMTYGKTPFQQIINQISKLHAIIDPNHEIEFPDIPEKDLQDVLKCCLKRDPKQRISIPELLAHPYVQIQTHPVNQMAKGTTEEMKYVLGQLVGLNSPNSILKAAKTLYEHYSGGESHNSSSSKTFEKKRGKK
Experimental: The human kinase Mps-1 phosphorylates a biotinylated substrate peptide. Detection of the phosphorylated product is achieved by time-resolved fluorescence resonance energy transfer (TR-FRET) from Europium-labelled anti-phospho-Serine/Threonine antibody as donor to streptavidin labelled with cross-linked allophycocyanin (SA-XLent) as acceptor. Compounds are tested for their inhibition of the kinase activity.
N-terminally GST-tagged human full length recombinant Mps-1 kinase (purchased from Invitrogen, Karslruhe, Germany, cat. no PV4071) was used. As substrate for the kinase reaction a biotinylated peptide of the amino-acid sequence biotin-Ahx-PWDPDDADITEILG (C-terminus in amide form, purchased from Biosyntan GmbH, Berlin) was used.
For the assay 50 nl of a 100-fold concentrated solution of the test compound in DMSO was pipetted into a black low volume 384 well microtiter plate (Greiner Bio-One, Frickenhausen, Germany), 2 μl of a solution of Mps-1 in assay buffer [0.1 mM sodium-ortho-vanadate, 10 mM MgCl2, 2 mM DTT, 25 mM Hepes pH 7.7, 0.05% BSA (w/v), 0.001% Pluronic F-127] were added and the mixture was incubated for 15 min at 22° C. to allow pre-binding of the test compounds to Mps-1 before the start of the kinase reaction. Then the kinase reaction was started by the addition of 3 μl of a solution of 16.7 μM adenosine-tri-phosphate (ATP, 16.7 μM=>final conc. in the 5 μl assay volume is 10 μM) and peptide substrate (1.67 μM=>final conc. in the 5 μl assay volume is 1 μM) in assay buffer and the resulting mixture was incubated for a reaction time of 60 min at 22° C. The concentration of Mps-1 in the assay was adjusted to the activity of the enzyme lot and was chosen appropriate to have the assay in the linear range, typical enzyme concentrations were in the range of about 0.5 nM (final conc. in the 5 μl assay volume). The reaction was stopped by the addition of 5 μl of a solution of TR-FRET detection reagents (100 mM Hepes pH 7.4, 0.1% BSA, 40 mM EDTA, 140 nM Streptavidin-XLent [#61GSTXLB, Fa. Cis Biointernational, Marcoule, France], 1.5 nM anti-phospho(Ser/Thr)-Europium-antibody [#AD0180, PerkinElmer LAS, Rodgau-Jugesheim, Germany]. Instead of the 1.5 nM anti-phospho(Ser/Thr)-Europium-antibody a mixture of 2 nM unlabeled anti-phospho ser/thr-pro antibody MPM-2 [Millipore cat. #05-368] and 1 nM LANCE EU-W1024 labeled anti-mouse IgG antibody [Perkin-Elmer, product no. AD0077] can be used).
The resulting mixture was incubated 1 h at 22° C. to allow the binding of the phosphorylated peptide to the anti-phospho(Ser/Thr)-Europium-antibody. Subsequently the amount of phosphorylated substrate was evaluated by measurement of the resonance energy transfer from the Europium-labelled anti-phospho(Ser/Thr) antibody to the Streptavidin-XLent. Therefore, the fluorescence emissions at 620 nm and 665 nm after excitation at 350 nm was measured in a Viewlux TR-FRET reader (PerkinElmer LAS, Rodgau-Jugesheim, Germany). The “blank-corrected normalized ratio” (a Viewlux specific readout, similar to the traditional ratio of the emissions at 665 nm and at 622 nm, in which blank and Eu-donor crosstalk are subtracted from the 665 nm signal before the ratio is calculated) was taken as the measure for the amount of phosphorylated substrate. The data were normalised (enzyme reaction without inhibitor=0% inhibition, all other assay components but no enzyme=100% inhibition).

Compound | pIC50 [1] | pIC50 (human kinase Mps-1)
COc1ccc(NC(=O)c2c(C)nsc2Nc2ncccc2C#N)cn1 [Example 36, 5-[(3-Cyanopyridin-2-yl)amino]-N-(6-methoxypyridin-3-yl)-3-methyl-1,2-thiazole-4-carboxamide] | 5.80 | < 4.70
COC(=O)c1cncc(Nc2snc(C)c2C(=O)Nc2ccc(OC)nc2)n1 [Example 101, Methyl 6-({4-[(6-methoxypyridin-3-yl)carbamoyl]-3-methyl-1,2-thiazol-5-yl}amino)pyrazine-2-carboxylate] | 5.74 | < 4.70
CCc1ccnc(Nc2snc(C)c2C(=O)Nc2ccccc2CC)n1 [Example 17, N-(2-Ethylphenyl)-5-[(4-ethylpyrimidin-2-yl)amino]-3-methyl-1,2-thiazole-4-carboxamide] | 5.22 | < 4.70
COc1ccc(NC(=O)c2c(C)nsc2Nc2nc3c(C(F)(F)F)cccc3s2)cc1F [Example 47, N-(3-Fluoro-4-methoxyphenyl)-3-methyl-5-{[4-(trifluoromethyl)-1,3-benzothiazol-2-yl]amino}-1,2-thiazole-4-carboxamide] | 7.04 | < 4.70
COc1ncc(NC(=O)c2c(C)nsc2Nc2cnc3ccccc3n2)cc1C [Example 121, N-(6-Methoxy-5-methylpyridin-3-yl)-3-methyl-5-(quinoxalin-2-ylamino)-1,2-thiazole-4-carboxamide] | 6.89 | < 4.70
CCc1ccccc1NC(=O)c1c(C)nsc1Nc1cnc2ccccc2n1 [Example 19, N-(2-Ethylphenyl)-3-methyl-5-(quinoxalin-2-ylamino)-1,2-thiazole-4-carboxamide] | 7.29 | < 4.70
CCc1ccccc1NC(=O)c1c(C)nsc1Nc1ncnc2sccc12 [Example 12, N-(2-Ethylphenyl)-3-methyl-5-(thieno[2,3-d]pyrimidin-4-ylamino)-1,2-thiazole-4-carboxamide] | 5.70 | < 4.70
CCc1ccccc1NC(=O)c1c(C)nsc1Nc1cc(-n2ccnc2)ncn1 [Example 9, N-(2-Ethylphenyl)-5-{[6-(1H-imidazol-1-yl)pyrimidin-4-yl]amino}-3-methyl-1,2-thiazole-4-carboxamide] | 5.89 | < 4.70
CCc1ccccc1NC(=O)c1c(C)nsc1Nc1ncnc2ccsc12 [Example 13, N-(2-Ethylphenyl)-3-methyl-5-(thieno[3,2-d]pyrimidin-4-ylamino)-1,2-thiazole-4-carboxamide] | 6.23 | < 4.70
COc1ccc(NC(=O)c2c(C)nsc2Nc2cnc3cccc(C)c3n2)cn1 [Example 22, N-(6-methoxypyridin-3-yl)-3-methyl-5-[(8-methylquinoxalin-2-yl)amino]-1,2-thiazole-4-carboxamide] | 6.68 | < 4.70
COC(=O)c1cnc(Nc2snc(C)c2C(=O)Nc2ccc(OC)nc2)cn1 [Example 32, Methyl 5-({4-[(6-methoxypyridin-3-yl)carbamoyl]-3-methyl-1,2-thiazol-5-yl}amino)-pyrazine-2-carboxylate] | 6.29 | < 4.70
Cc1nsc(Nc2cncc(N(C)C)n2)c1C(=O)Nc1ccc(F)c(F)c1 [Example 105, N-(3,4-Difluorophenyl)-5-{[6-(dimethylamino)pyrazin-2-yl]amino}-3-methyl-1,2-thiazole-4-carboxamide] | 5.70 | 4.92
COc1ccc(NC(=O)c2c(C)nsc2Nc2cnc3ccc(F)cc3n2)cn1 [Example 44, 5-[(7-Fluoroquinoxalin-2-yl)amino]-N-(6-methoxypyridin-3-yl)-3-methyl-1,2-thiazole-4-carboxamide] | 6.70 | < 4.70
CCOC(=O)c1cnn2ccc(Nc3snc(C)c3C(=O)Nc3ccc(F)c(F)c3)nc12 [Example 55, Ethyl 5-({4-[(3,4-difluorophenyl)carbamoyl]-3-methyl-1,2-thiazol-5-yl}amino)-pyrazolo[1,5-a]pyrimidine-3-carboxylate] | 6.66 | < 4.70
